This is an account of results in patent US20260184663A1, “INDENE COMPOUNDS, PHARMACEUTICAL COMPOSITIONS THEREOF, AND THEIR THERAPEUTIC APPLICATIONS” (NucMito Pharmaceuticals co. Ltd., priority 2022, published 2026).

The structures appear in SMILES notation.

What all share (type): cell-based
In test [1] the test system is B16F10 (malignant melanoma). Description: Antiproliferative activity (CCK-8 cell viability), B16F10. The note with it: Mus musculus, 72 h, read-out: Antiproliferative activity in cancerous cells, B16F10 (inhibition of cell growth); for inhibition at 3.3 µM: B16-F10, Compound concentration: 3.3 μM; for inhibition at 10 µM: B16-F10, Compound concentration: 10 μM; for inhibition at 30 µM: B16-F10, Compound concentration: 30 μM. In short, it runs like this:
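B16F10 melanoma cells grown in DMEM with 10% FBS were plated in 96-well plates at 2,000-5,000 cells/well. After attachment they were exposed to compound in medium for 72 h at 37° C. CCK-8 solution (10 μL) was then added, and after 4 h at 37° C absorbance was read at 450 nm.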

The test system of another test is SW480 (colon cancer). Description: Antiproliferative activity (CCK-8 cell viability), SW480. The following applies: Homo sapiens, 72 h, read-out: Antiproliferative activity in cancerous cells, SW480 (inhibition of cell growth); for inhibition at 3.3 µM: Compound concentration: 3.3 μM; for inhibition at 10 µM: Compound concentration: 10 μM; for inhibition at 30 µM: Compound concentration: 30 μM. In short, it runs like this: (§1)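 Cells grown in DMEM (HepG2, SW480), MEM (HeLa) or F-12K (A549), each with 10% FBS, then exposed to compound at 3.3, 10 or 30 μM for 72 h at 37 °C. CCK-8 absorbance at 450 nm; viability expressed as percent of DMSO-treated cells, graded as growth inhibition bands.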

For test [2], the system named is A549 (lung adenocarcinoma). Nature of the test: Antiproliferative activity (CCK-8 cell viability), A549. The following applies: Homo sapiens, 72 h, read-out: Antiproliferative activity in cancerous cells, A549 (inhibition of cell growth); for inhibition at 3.3 µM: Compound concentration: 3.3 μM; for inhibition at 10 µM: Compound concentration: 10 μM; for inhibition at 30 µM: Compound concentration: 30 μM. The gist of the method:
as §1

A further test concerns HeLa (cervical cancer). Nature of the test: Antiproliferative activity (CCK-8 cell viability), HeLa. The note with it: Homo sapiens, 72 h, read-out: Antiproliferative activity in cancerous cells, HELA (inhibition of cell growth); for inhibition at 3.3 µM: Compound concentration: 3.3 μM; for inhibition at 10 µM: Compound concentration: 10 μM; for inhibition at 30 µM: Compound concentration: 30 μM. In short, it runs like this: as §1

The subject of test [3] is A431 (epidermoid carcinoma). Description: Antiproliferative activity (CCK-8 cell viability), A431. The note with it: Homo sapiens, 72 h, read-out: Antiproliferative activity in cancerous cells, A431 (inhibition of cell growth); for inhibition at 3.3 µM: A-431, Compound concentration: 3.3 μM; for inhibition at 10 µM: A-431, Compound concentration: 10 μM; for inhibition at 30 µM: A-431, Compound concentration: 30 μM. In short, it runs like this:
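A431 epidermoid carcinoma cells grown in DMEM with 10% FBS were plated at 2,000-5,000 cells/well in 96-well plates. After attachment they were exposed to compound at 3.3 μM, 10 μM, or 30 μM for 72 h at 37° C. Viability was then assessed by CCK-8 against DMSO vehicle-treated wells.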

The next test relates to HepG2 (liver cancer). Description: Antiproliferative activity (CCK-8 cell viability), HepG2. The following applies: Homo sapiens, 72 h, read-out: Antiproliferative activity in cancerous cells, HepG2 (inhibition of cell growth); for inhibition at 3.3 µM: Compound concentration: 3.3 μM; for inhibition at 10 µM: Compound concentration: 10 μM; for inhibition at 30 µM: Compound concentration: 30 μM. The gist of the method: as §1

Test [4] deals with MDA-MB-231 (breast cancer). Nature of the test: Antiproliferative activity (CCK-8 cell viability), MDA-MB-231. The following applies: Homo sapiens, 72 h, read-out: Antiproliferative activity in cancerous cells, MDA-MB-231 (inhibition of cell growth); for inhibition at 3.3 µM: Compound concentration: 3.3 μM; for inhibition at 10 µM: Compound concentration: 10 μM; for inhibition at 30 µM: Compound concentration: 30 μM. The gist of the method: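 MDA-MB-231 breast cancer cells, grown in DMEM with 10% FBS, were plated in 96-well plates at 2,000-5,000 cells/well. Once attached, they were exposed to compound and incubated at 37° C. for 72 h. Viability was then measured with CCK-8 (10 μL per well, 4 h at 37° C.) by absorbance at 450 nm, relative to DMSO vehicle wells.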

Consider `CC1=C(CC(=O)O)c2cc(F)ccc2/C1=C\c1ccc(OC2CCN(C(=O)OC(C)(C)C)CC2)cc1` [C201, (Z)-2-(1-(4-((1-(Tert-butoxycarbonyl)piperidin-4-yl)oxy)benzylidene)-5-fluoro-2-methyl-1H-inden-3-yl)acetic acid], for which the inhibition at 3.3 µM in test [1] was less than 30%; with SW480 (colon cancer) it was less than 30%; in test [2] it was less than 30%; in the test on HeLa (cervical cancer), less than 30%; in test [3], no less than 50%; in the test on HepG2 (liver cancer), less than 30%. Besides, the inhibition at 3.3 µM in test [4] is less than 30%. Moreover, the inhibition at 10 µM (in test [1]; with SW480 (colon cancer); in test [2]; with HeLa (cervical cancer); in test [3]; in the test with HepG2 (liver cancer)) was no less than 50% throughout. Moreover, the inhibition at 10 µM in test [4] is no less than 50%. In addition, the inhibition at 30 µM (in test [1]; in the test with SW480 (colon cancer); in test [2]; with HeLa (cervical cancer); in test [3]; in the test with HepG2 (liver cancer)) was no less than 50% throughout. Moreover, the inhibition at 30 µM in test [4] is no less than 50%.

For the molecule `COc1ccc(/C=C2/C(C)=C(CC(=O)O)c3cc(F)ccc32)cc1Cl` [D12, (Z)-2-(1-(3-Chloro-4-methoxybenzylidene)-5-fluoro-2-methyl-1H-inden-3-yl)acetic acid], the inhibition at 3.3 µM was less than 30% in test [1]; less than 30% with SW480 (colon cancer); less than 30% in test [2]; less than 30% with HeLa (cervical cancer); no less than 50% in test [3]; less than 30% in the test with HepG2 (liver cancer). Also, the inhibition at 3.3 µM in test [4] was less than 30%. Also, the inhibition at 10 µM was 30 to 50% in test [1]; less than 30% in the test on SW480 (colon cancer); less than 30% in test [2]; 30 to 50% with HeLa (cervical cancer); no less than 50% in test [3]; 30 to 50% in the test with HepG2 (liver cancer). In test [4], the inhibition at 10 µM lay within 30 to 50%. Moreover, the inhibition at 30 µM (in test [1]; with SW480 (colon cancer); in test [2]; with HeLa (cervical cancer); in test [3]; with HepG2 (liver cancer)) was no less than 50% throughout. Also, the inhibition at 30 µM in test [4] was no less than 50%.

`CC1=C(CC(=O)O)c2cc(F)ccc2/C1=C\c1ccc(COCc2ccc(C(C)C)cc2)cc1` [B150, (Z)-2-(5-Fluoro-1-(4-(((4-isopropylbenzyl)oxy)methyl)benzylidene)-2-methyl-1H-inden-3-yl)acetic acid]: the inhibition at 3.3 µM in test [1] is less than 30%; with SW480 (colon cancer) it was 30 to 50%; in test [2] it was 30 to 50%; in the test with HeLa (cervical cancer) it was 30 to 50%; in test [3] it was no less than 50%; in the test with HepG2 (liver cancer), less than 30%. The inhibition at 3.3 µM in test [4] lay within 30 to 50%. For the same molecule, the inhibition at 10 µM (in test [1]; in the test with SW480 (colon cancer); in test [2]; in the test on HeLa (cervical cancer); in test [3]; in the test on HepG2 (liver cancer)) was no less than 50% each time. Further, the inhibition at 10 µM in test [4] was no less than 50%.

For the molecule `CC1=C(CC(=O)O)c2cc(Br)ccc2/C1=C\c1cccc(Oc2ccc(Cl)cc2)c1` [C108, (Z)-2-(5-Bromo-1-(3-(4-chlorophenoxy)benzylidene)-2-methyl-1H-inden-3-yl)acetic acid], the inhibition at 3.3 µM is no less than 50% in test [1]; less than 30% in the test with SW480 (colon cancer); less than 30% in test [2]; less than 30% in the test on HeLa (cervical cancer); no less than 50% in test [3]; less than 30% in the test on HepG2 (liver cancer). For the same molecule, the inhibition at 3.3 µM in test [4] is no less than 50%. Moreover, the inhibition at 10 µM in test [1] was no less than 50%; in the test on SW480 (colon cancer) it was 30 to 50%; in test [2] it was no less than 50%; with HeLa (cervical cancer), no less than 50%; in test [3], no less than 50%; in the test on HepG2 (liver cancer), no less than 50%. Further, the inhibition at 10 µM in test [4] is no less than 50%.

`CC1=C(CC(=O)O)c2cc(Cl)ccc2/C1=C\c1ccc(Oc2ccc(F)c(F)c2)cc1` [C76, (Z)-2-(5-Chloro-1-(4-(3,4-difluorophenoxy)benzylidene)-2-methyl-1H-inden-3-yl)acetic acid]: the inhibition at 3.3 µM in test [1] is 30 to 50%; in the test on SW480 (colon cancer), less than 30%; in test [2], 30 to 50%; in the test on HeLa (cervical cancer), 30 to 50%; in test [3] it was no less than 50%; with HepG2 (liver cancer) it was less than 30%. Moreover, the inhibition at 3.3 µM in test [4] was less than 30%. Besides, the inhibition at 10 µM (in test [1]; with SW480 (colon cancer); in test [2]; in the test with HeLa (cervical cancer); in test [3]; in the test on HepG2 (liver cancer)) was no less than 50% throughout. In addition, the inhibition at 10 µM in test [4] was no less than 50%.

As to `CC1=C(CC(=O)O)c2cc(Cl)ccc2/C1=C/c1ccc(Oc2ccc(F)cc2)cc1` [E41, (E)-2-(5-Chloro-1-(4-(4-fluorophenoxy)benzylidene)-2-methyl-1H-inden-3-yl)acetic acid], the inhibition at 3.3 µM in test [1] is less than 30%; with SW480 (colon cancer), 30 to 50%; in test [2], less than 30%; in the test with HeLa (cervical cancer), less than 30%; in test [3] it was no less than 50%; in the test on HepG2 (liver cancer) it was less than 30%. For the same molecule, the inhibition at 3.3 µM in test [4] is less than 30%. Moreover, the inhibition at 10 µM in test [1] is no less than 50%; with SW480 (colon cancer), no less than 50%; in test [2], 30 to 50%; in the test on HeLa (cervical cancer), no less than 50%; in test [3] it was no less than 50%; in the test with HepG2 (liver cancer) it was no less than 50%. Further, in test [4], the inhibition at 10 µM was no less than 50%. Moreover, the inhibition at 30 µM (in test [1]; in the test with SW480 (colon cancer); in test [2]; in the test on HeLa (cervical cancer); in test [3]; in the test with HepG2 (liver cancer)) was no less than 50% each time. Also, the inhibition at 30 µM in test [4] is no less than 50%.

What is called inhibition is how much of the control response was suppressed.
